Results from patent US12337003B2, “Pharmaceutical compositions for combination therapy” (Intercept Pharmaceuticals, Inc., priority 2015, dated 2025).

Legend:
[1] = tested on: patients with non-cirrhotic, non-alcoholic steatohepatitis; test: Randomized placebo-controlled clinical trial in non-alcoholic steatohepatitis; type: in vivo, humans; conditions: at 24 weeks; 25 mg daily orally vs placebo; 95% CI −45 to −3
Experimental: A multicenter, double-blind, placebo-controlled, parallel group, randomized clinical trial was conducted in patients with non-cirrhotic, non-alcoholic steatohepatitis to assess treatment with obeticholic acid given orally (25 mg daily) or placebo for 72 weeks. Patients were randomly assigned 1:1 using a computer-generated, centrally administered procedure, stratified by clinical center and diabetes status. The primary outcome measure was improvement in centrally scored liver histology defined as a decrease in non-alcoholic fatty liver disease activity score by at least 2 points without worsening of fibrosis from baseline to the end of treatment. Change in alanine aminotransferase at 24 weeks was measured: relative change in alanine aminotransferase −24%, 95% CI −45 to −3.
Patients were enrolled in the study according to the following inclusion criteria: 18 years or older at the time of screening, histological evidence of definite or borderline non-alcoholic steatohepatitis based upon a liver biopsy obtained 90 days or less before randomization, and a histological non-alcoholic fatty liver disease (NAFLD) activity score of 4 or more with a score of 1 or more in each component of the score (steatosis scored 0-3, ballooning 0-2, and lobular inflammation 0-3). Grading and staging of biopsies for the purposes of enrollment were carried out at the site of enrollment. […]

[2] = tested on: leukocyte extravasation signaling; test: Hepatic gene expression profiling (RNA sequencing, pathway analysis) in APOE*3Leiden.CETP mice; type: in vivo
Experimental: This experiment was performed to evaluate the effects of OCA and fenofibrate, alone or in combination, on the development of diet induced NASH and liver fibrosis in APOE*3Leiden.CETP transgenic mice. Hepatic gene expression profiling and subsequent pathway analysis were performed to determine whether the combination regulates novel genes not regulated by either monotherapy treatment, and/or more strongly regulates genes also impacted by the monotherapy.
Mice were fed a high fat chow (HFC) diet for […]. After 15 weeks on the HFC diet, HFC mice were matched into 7 groups based on age, body weight, plasma cholesterol and triglycerides after 4 h fasting. Mice were treated with of OCA and fenofibrate, alone or in combination beginning at week 15 and sacrificed at week 25 in an unfasted state. One week before sacrifice, mice were labeled with D20, by i.p. injection of a bolus of D20 and subsequent addition of 4% D20 to the drinking water. Plasma (EDTA) was obtained by heart puncture and stored at −70° C. The liver was weighed and 4 pieces of liver were isolated: 1 piece (medial lobe) was fixed in 10% formalin (for NASH and fibrosis histology) and 3 pieces (sinister lobe) were snap-frozen in liquid N2 and stored individually at −70° C.
Nucleic acid extraction was performed as described previously in detail (Verschuren et al., 2014). Briefly, total RNA was extracted from individual liver samples using glass beads and RNAzol (Campro Scientific, Veenendaal, The Netherlands). RNA concentration and quality was determined using the Fragment Analyzer (Advanced Analytical Technologies, USA) and the RNA 6000 Nano Lab-on-a-Chip kit and a Bioanalyzer 2100 (Agilent Technologies, Amstelveen, The Netherlands). All samples met the quality requirements and were used in the RNA sequencing procedure.
The NEBNext Ultra Directional RNA library Prep Kit for Illumina was used to process the samples. The sample preparation was performed according to the protocol “NEBNext Ultra Directional RNA Library Prep Kit for Illumina” (NEB #E7420S/L). Briefly, mRNA was isolated from total RNA using oligo-dT magnetic beads. After fragmentation of the mRNA, a cDNA synthesis was performed. This was used for ligation of sequencing adapters and PCR amplification of the resulting product. The quality and yield after sample preparation was measured with the Fragment Analyzer (Advanced Analytical Technologies, USA). The size of the resulting products was consistent with the expected size distribution (a broad peak between 300-500 bp).
Clustering and DNA sequencing using the Illumina […] was performed according manufacturer's protocols. Data was generated using single-end read sequencing protocol obtaining approx. 15 million reads per sample and 75 bp per read. Image analysis, base calling, and quality check was performed with the Illumina data analysis pipeline RTA v2.4.11 to generate the raw data (*.fastq-files).
The reads were mapped to the reference sequence Mus musculus GRCm38.p3 using a short read aligner based on Burrows-Wheeler Transform. The default mismatch rate of 2% (3 mismatches in a read of 150 bases) was used. Based on the mapped read locations in the alignment files (*.bam-files) the frequency of how often a read was mapped on a transcript was determined. The counts were saved to count-files, which served as input for downstream mRNA-seq differential expression analysis. The read counts were loaded into the DESeq package, a statistical package within the R platform. […]

## CC[C@H]1[C@@H](O)[C@@H]2[C@H](CC[C@]3(C)[C@@H]([C@H](C)CCC(=O)O)CC[C@@H]23)[C@@]2(C)CC[C@@H](O)C[C@@H]12 [OCA, 3α,7α-dihydroxy-6α-ethyl-5β-cholan-24-oic acid]
[1]
  relative change in alanine aminotransferase: −24%
[2]; Venn diagram, OCA 10 mg/kg, fenofibrate 10 mg/kg, combination
  number of uniquely regulated genes: 109
[2]; liver mRNA, OCA 10 mg/kg and/or low dose fenofibrate vs HFC
  enrichment analysis of canonical (inflammatory) pathways: regulated several inflammatory processes
[2]; liver mRNA, OCA and/or low dose fenofibrate, relative to vehicle group
  regulation of genes of leukocyte extravasation signaling (leukocyte and endothelial cells): downregulates numerous genes
